From patent publication US9820487B2, “Abscinazole” (NATIONAL UNIVERSITY CORPORATION SHIZUOKA UNIVERSITY, priority 2014, dated 2017)

Assays:
[1] = biological target: T1, ent-kaurene oxidase CYP701A6 (Oryza sativa subsp. japonica, UniProt Q5Z5R4); test: Ent-kaurene oxidase CYP701A6 inhibition test; format: biochemical; settings: CYP701A6 + NADPH-P450 reductase ATR2, substrate ent-kaurene, 30° C. 30 minutes; IC50 calculated from two concentrations
T1 sequence (Q5Z5R4 1-505): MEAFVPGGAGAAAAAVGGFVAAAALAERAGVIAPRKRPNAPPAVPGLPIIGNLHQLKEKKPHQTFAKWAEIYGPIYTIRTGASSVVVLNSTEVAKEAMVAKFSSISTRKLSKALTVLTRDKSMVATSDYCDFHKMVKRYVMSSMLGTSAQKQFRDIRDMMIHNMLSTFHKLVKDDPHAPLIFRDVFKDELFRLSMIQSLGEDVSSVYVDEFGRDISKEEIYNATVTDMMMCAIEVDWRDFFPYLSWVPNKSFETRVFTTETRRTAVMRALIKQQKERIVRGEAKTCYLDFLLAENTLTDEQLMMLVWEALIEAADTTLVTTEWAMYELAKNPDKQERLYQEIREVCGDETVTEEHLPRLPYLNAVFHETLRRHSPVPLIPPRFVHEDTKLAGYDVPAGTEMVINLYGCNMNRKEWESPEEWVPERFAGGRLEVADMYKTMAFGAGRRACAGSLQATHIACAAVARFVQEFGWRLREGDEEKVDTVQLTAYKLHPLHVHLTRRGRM
Method: To a 1.5 mL microtube, 8 μL of an aqueous solution of 500 μM ent-kaurene as a substrate in 45% cyclodextrin and 8μL of a solution of the sample in dimethylformamide were put. 10 μL of 2.32 μM ent-kaurene oxidase CYP701A6 and 10 μL of 4.6 unit/mL NADPH-P450 reductase ATR2, heated at 30° C. for 5 minutes in advance, were added thereto. 304 μL of ultra-pure water, 40 μL of 500 mM KPB and 20 μL of an aqueous solution of 20 mM NADPH, heated at 30° C. for 10 minutes in advance, were added thereto thereby starting the enzyme reaction. The reaction was carried out at 30° C. for 30 minutes at a rotation speed of 1000 rpm and 100 μL of 1 M hydrochloric acid was added thereto thereby terminating the reaction. 5 μL of 10 μM abietic acid as the internal standard was added thereto, and the solution was extracted with 400 μL of ethyl acetate. The resultant was dried over sodium sulfate and subsequently concentrated under reduced pressure. 50 μL of methanol and 5 μL of 2 M trimethyl silyldiazomethane were added thereto to methylate carboxylic acid and the resultant was thy-solidified using nitrogen. The solidified product was dissolved in 150 μL of hexane and 1 μL of the resultant solution was subjected to a GC-MS analysis to detect the enzyme metabolite ent-kaurene acid. The CYP701A6 inhibition rate of the samples was calculated in accordance with the following formula (4). Note that the peak area of ent-kaurene acid was calculated from the peak area of m/z 273 and that ent-kaurene acid was identified from the area ratio of m/z 257, 213. The peak area of abietic acid was calculated from the area of m/z 256, and abietic acid was identified from the area ratio of m/z 316. Note that dimethylformamide was used for the control in place of the sample solution. Each sample was tested with two different concentrations to act late the 50% inhibition concentration (IC50) based on the enzyme inhibition rates thereof.
Enzyme inhibition rate (%)={1-(Ent-kaurene acid peak area of each sample/Abietic acid peak area of each sample/(Ent-kaurene acid peak area of control/Abietic acid peak area of control }×100 . . . (4)

[2] = tested on: thale cress (Arabidopsis thaliaria, Col-0); test: Thale cress growth test (survival after dry treatment); format: in vivo
Method: Five plant bodies of 2-week old thale cress (Arabidopsis thaliaria, Col-0) grown in Gelzan medium (containing MS medium mixed salts and 1% sucrose) were transplanted to a 200 mL-plastic pot containing a culture soil obtained by mixing vermiculite and premix in 1:1 and grown at 22° C. for 2 weeks under the condition of 16 hour light period—8 hour dark period. At this stage, the moisture content was adjusted so that the mass of the pot containing the plant and the culture soil was to be about 150 g. 50 ml, of a 50 μM aqueous solution of the (−) form of Example 1 (containing 0.05% Tween-20 and 0.2% MeOH) was sprayed to the above-ground part on 27 pots (135 seedlings of thale cress in total) once a day for 3 days. The pots on which above-ground part were sprayed with 50 mL of an aqueous solution free from the above compound (containing 0.05% Tween-20 and 0.2% MeOH) once a day for 3 days were used as controls. The pots were dry-treated for 12 days and subsequently watered, and the number of plant bodies survived 3 days later was counted, from which the survival rate was calculated in accordance with the following formula (5).
Survival rate (%)=Number of plant bodies survived (piece)/Total number of plant bodies (piece)×100 . . .(5)

Structure (SMILES): COCCOCCOCCOCC#Cc1cccc(/C=C(\[C@@H](O)C(C)(C)C)n2cncn2)c1 [Example 1 (−) Form, (−)-(S)-(E)-1-(3-(2,5,8,11-tetraoxatetradec-13-yn-14-yl)phenyl)-4,4-dimethyl-2-(1H-1,2,4-triazol-1-yl)pent-1-en-3-ol]
- potency estimated from few doses [1]: 0.78 µM
- survival rate after dry treatment ([2]; 50 μM aqueous solution sprayed once a day for 3 days, dry-treated 12 days, watered, counted 3 days later, control 15%): 75%
- withering due to dryness ([2]; sprayed to thale cress, 50 μM, dry treatment 12 days): reduced
